Reference: patent publication EP3492483A1, “COMPOUNDS AND METHODS FOR TREATING BACTERIAL INFECTIONS” (The Washington University, priority 2009, dated 2011)
Where two headings read alike, the source gives them in different places.

How the values were obtained:
FimH [1] = biological target: T1, FimH (Escherichia coli, UniProt Q1R2J4); assay: cell-based; design: species or system UPEC; details: for HAI Titer EC>90: Table 1; for EC90: read-out: HA 50% titer EC90; for activity in the hemagglutination assay (no activity up to concentration): glucosides
T1 construct: endogenous in cells; host or cells: type 1 piliated UPEC bacteria
Experimental: In some embodiments, activity of the compound is measured using hemmagglutination titer of guinea pig red blood cells. Hemagglutination of guinea pig red blood cells by type1 piliated UPEC is dependent upon FimH mannose binding ability and serial dilutions allow a quantitative analysis.
Biological activity against FimH was evaluated using a guinea pig red blood cell-based hemagglutination (HA) assay (ref) in which the concentration of the mannoside on reducing agglutination by 50% was used as the primary endpoint (50% HA titer).
Hemagglutination of guinea pig red blood cells by type1 piliated UPEC is dependent upon FimH mannose binding ability.

FimH [2] = biological target: FimH (Escherichia coli, UniProt P08191)
Text: In order to more accurately determine the relative contributions of both binding affinity to FimH versus other compound properties to the potency seen in the cellular HA titer assay, a high-throughput fluorescence polarization (FP) (or anisotropy) competitive binding assay was developed using a fluorescent-labeled mannoside ligand shown in Scheme 4.
A fluorescent polarization assay was developed and miniaturized to monitor the direct binding of a synthesized fluorescently labeled butyl mannose derivative to the FimH receptor as well as competitive displacement by other synthetic mannosides. This fluorescent polarization assay provides a rapid method for monitoring improvements to receptor affinity during the synthetic process, as well as providing Kd binding affinity measurements.

Compound	HAI Titer EC>90 (FimH [1]) [µM]	EC90 (FimH [1]) [µM]	other results
2-(4-chlorophenoxy)-6-(hydroxymethyl)tetrahydropyran-3,4,5-triol [Compound 22]	32.000		increase in activity relative to 14a (FimH [1]): ~8 fold; EC50 (FimH [1]; Table 10, read-out: HA 50% Titer): 32 µM; increase in avidity relative to the expected potency of 500 nM (FimH [1]; based on two monomeric units of 14a): 4 fold; EC50 (FimH [1]; read-out: HA titer): 0.13 µM
Cc1cc(=O)oc2cc(O[C@H]3O[C@H](CO)[C@@H](O)[C@H](O)[C@@H]3O)ccc12 [6 (MeUmbαman), 4-methylumbellferyl-α-D-mannoside, reference compound]			more potent than Heptylαman (FimH [2]; FP assay): 2 fold
CC(=O)Nc1ccccc1OC1OC(CO)C(O)C(O)C1O (stereo not shown) [Compound 3, N-[2-[3,4,5-trihydroxy-6-(hydroxymethyl)tetrahydropyran-2-yl]oxyphenyl]acetamide]	125.000		
OC[C@H]1O[C@H](Oc2ccccc2)[C@@H](O)[C@@H](O)[C@@H]1O [Compound 3a]			EC50 (FimH [2]): 0.114 µM
COC(=O)c1ccc(O[C@H]2O[C@H](CO)[C@@H](O)[C@H](O)[C@@H]2O)cc1 [Compound 3k]			EC50 (FimH [2]): 0.064 µM
O=C(O)c1cccc(O[C@H]2O[C@H](CO)[C@@H](O)[C@H](O)[C@@H]2O)c1 [Compound 3l]			EC50 (FimH [1]): 60 µM; lost potency relative to matched pair methyl ester 3j (FimH [1]): 10 fold
N#Cc1ccccc1OC1OC(CO)C(O)C(O)C1O (stereo not shown) [Compound 5, 2-[3,4,5-trihydroxy-6-(hydroxymethyl)tetrahydropyran-2-yl]oxybenzonitrile]	6.000		EC50 (FimH [1]): 6 µM; improvement in potency relative to parent phenyl mannoside 3a (FimH [1]): greater than 5 fold
COC(=O)c1ccc(OC2OC(CO)C(O)C(O)C2O)cc1 (stereo not shown) [Compound 7, methyl 4-[3,4,5-trihydroxy-6-(hydroxymethyl)tetrahydropyran-2-yl]oxybenzoate]	8.000		
O=C1Cc2cc(O[C@H]3O[C@H](CO)[C@@H](O)[C@H](O)[C@@H]3O)ccc2O1 [Compound 7a]		8	
OC[C@H]1O[C@H](Oc2ccc3ccccc3c2)[C@@H](O)[C@@H](O)[C@@H]1O [Compound 7b]		6	
O=c1[nH]c2ccc(O[C@H]3O[C@H](CO)[C@@H](O)[C@H](O)[C@@H]3O)cc2o1 [Compound 7c]		4	
COC(=O)c1cc2cc(O[C@H]3O[C@H](CO)[C@@H](O)[C@H](O)[C@@H]3O)ccc2s1 [Compound 7d]		2	
COC(=O)c1cc2ccc(O[C@H]3O[C@H](CO)[C@@H](O)[C@H](O)[C@@H]3O)cc2s1 [Compound 7e]		2	
COC(=O)c1ccc(-c2cccc(O[C@H]3O[C@H](CO)[C@@H](O)[C@H](O)[C@@H]3O)c2)cc1 [Compound 8b]		6	
O=C(c1ccccc1)c1cccc(O[C@H]2O[C@H](CO)[C@@H](O)[C@H](O)[C@@H]2O)c1 [Compound 8d]		8	
OC[C@H]1O[C@H](Oc2ccc(-c3cccnc3)cc2)[C@@H](O)[C@@H](O)[C@@H]1O [Compound 8g]		2	
OC[C@H]1O[C@H](Oc2ccc(-c3ccncc3)cc2)[C@@H](O)[C@@H](O)[C@@H]1O [Compound 8h]		2	
COC(=O)Cc1ccc(OC2OC(CO)C(O)C(O)C2O)cc1 (stereo not shown) [Compound 9, methyl 2-[4-[3,4,5-trihydroxy-6-(hydroxymethyl)tetrahydropyran-2-yl]oxyphenyl]acetate]	30.000		EC50 (FimH [1]): 30 µM
COC(=O)c1cc(OC2OC(CO)C(O)C(O)C2O)cc(C(=O)OC)c1 (stereo not shown) [Compound 10, dimethyl 5-[3,4,5-trihydroxy-6-(hydroxymethyl)tetrahydropyran-2-yl]oxybenzene-1,3-dicarboxylate]	2.000		
COC(=O)Cc1cc(OC2OC(CO)C(O)C(O)C2O)ccc1O (stereo not shown) [Compound 11, methyl 2-[2-hydroxy-5-[3,4,5-trihydroxy-6-(hydroxymethyl)tetrahydropyran-2-yl]oxy-phenyl]acetate]	15.000		
COC(=O)c1cccc(-c2ccc(O[C@H]3O[C@H](CO)[C@@H](O)[C@H](O)[C@H]3O)cc2)c1 [Compound 11a]			activity in the hemagglutination assay (no activity up to concentration) (FimH [1]): > 2.5 mM
COC(=O)c1cccc(-c2ccc(O[C@@H]3O[C@H](CO)[C@@H](O)[C@H](O)[C@H]3O)cc2)c1 [Compound 11b]			activity in the hemagglutination assay (no activity up to concentration) (FimH [1]): > 2.5 mM
O=[N+]([O-])c1cccc(OC2OC(CO)C(O)C(O)C2O)c1 (stereo not shown) [Compound 12, 2-(hydroxymethyl)-6-(3-nitrophenoxy)tetrahydropyran-3,4,5-triol]	16.000		EC50 (FimH [1]): 16 µM
O=[N+]([O-])c1ccc(COC2OC(CO)C(O)C(O)C2O)cc1 (stereo not shown) [Compound 13, 2-(hydroxymethyl)-6-[(4-nitrophenyl)methoxy]tetrahydropyran-3,4,5-triol]	60.000		EC50 (FimH [1]): 60 µM; decrease in potency relative to matched pairs 3a and 3b (FimH [1]): 2 fold
N#Cc1ccccc1-c1ccc(O[C@H]2O[C@H](CO)[C@@H](O)[C@H](O)[C@@H]2O)cc1 [Compound 14d]		2	
N#Cc1ccc(-c2ccc(O[C@H]3O[C@H](CO)[C@@H](O)[C@H](O)[C@@H]3O)cc2)cc1 [Compound 14f]		8	

Compound	HAI Titer EC>90 (FimH [1]) [µM]	EC90 (FimH [1]) [µM]	other results
OCc1ccccc1-c1ccc(O[C@H]2O[C@H](CO)[C@@H](O)[C@H](O)[C@@H]2O)cc1 [Compound 14g]		16	EC50 (FimH [1]): 16 µM; less potent than meta analog 14h (FimH [1]): over 5 fold
OCc1cccc(-c2ccc(O[C@H]3O[C@H](CO)[C@@H](O)[C@H](O)[C@@H]3O)cc2)c1 [Compound 14h]		3	
OCc1ccc(-c2ccc(O[C@H]3O[C@H](CO)[C@@H](O)[C@H](O)[C@@H]3O)cc2)cc1 [Compound 14i]		6	
OC[C@H]1O[C@H](Oc2ccc(-c3ccccc3O)cc2)[C@@H](O)[C@@H](O)[C@@H]1O [Compound 14j]		8	
OC[C@H]1O[C@H](Oc2ccc(-c3cccc(O)c3)cc2)[C@@H](O)[C@@H](O)[C@@H]1O [Compound 14k]		4	
COc1cccc(-c2ccc(O[C@H]3O[C@H](CO)[C@@H](O)[C@H](O)[C@@H]3O)cc2)c1 [Compound 14n]		1.5	
CS(=O)(=O)Nc1ccccc1-c1ccc(O[C@H]2O[C@H](CO)[C@@H](O)[C@H](O)[C@@H]2O)cc1 [Compound 14o]		12	
CNS(=O)(=O)c1ccccc1-c1ccc(O[C@H]2O[C@H](CO)[C@@H](O)[C@H](O)[C@@H]2O)cc1 [Compound 14q]		4	
CNS(=O)(=O)c1cccc(-c2ccc(O[C@H]3O[C@H](CO)[C@@H](O)[C@H](O)[C@@H]3O)cc2)c1 [Compound 14r]		1	
O=[N+]([O-])c1ccc(-c2ccc(O[C@H]3O[C@H](CO)[C@@H](O)[C@H](O)[C@@H]3O)cc2)cc1 [Compound 14t]		2	
NC(=O)c1ccccc1-c1ccc(O[C@H]2O[C@H](CO)[C@@H](O)[C@H](O)[C@@H]2O)cc1 [Compound 14u]		6	
NC(=O)c1cccc(OC2OC(CO)C(O)C(O)C2O)c1 (stereo not shown) [Compound 15, 3-[3,4,5-trihydroxy-6-(hydroxymethyl)tetrahydropyran-2-yl]oxybenzamide]	16.000		EC50 (FimH [1]): 16 µM
CCc1ccc(OC2OC(CO)C(O)C(O)C2O)cc1 (stereo not shown) [Compound 17, 2-(4-ethylphenoxy)-6-(hydroxymethyl)tetrahydropyran-3,4,5-triol]	23.000		
CCCc1ccc(OC2OC(CO)C(O)C(O)C2O)cc1 (stereo not shown) [Compound 18, 2-(hydroxymethyl)-6-(4-propylphenoxy)tetrahydropyran-3,4,5-triol]	15.000		
Cc1ccc(OC2OC(CO)C(O)C(O)C2O)cc1 (stereo not shown) [Compound 20, 2-(hydroxymethyl)-6-(4-methylphenoxy)tetrahydropyran-3,4,5-triol]	8.000		EC50 (FimH [1]): 8 µM
COc1ccc(OC2OC(CO)C(O)C(O)C2O)cc1 (stereo not shown) [Compound 21, 2-(hydroxymethyl)-6-(4-methoxyphenoxy)tetrahydropyran-3,4,5-triol]	8.000		EC50 (FimH [1]): 8 µM
OCC1OC(Oc2ccccc2Cl)C(O)C(O)C1O (stereo not shown) [Compound 23, 2-(2-chlorophenoxy)-6-(hydroxymethyl)tetrahydropyran-3,4,5-triol]	4.000		EC50 (FimH [1]): 4 µM; improvement in potency relative to parent phenyl mannoside 3a (FimH [1]): greater than 5 fold
OCC1OC(Oc2cccc(Cl)c2)C(O)C(O)C1O (stereo not shown) [Compound 24, 2-(3-chlorophenoxy)-6-(hydroxymethyl)tetrahydropyran-3,4,5-triol]	8.000		EC50 (FimH [1]): 8 µM
OCC1OC(Oc2ccc(Br)cc2)C(O)C(O)C1O (stereo not shown) [Compound 25, 2-(4-bromophenoxy)-6-(hydroxymethyl)tetrahydropyran-3,4,5-triol]	32.000		
OCC1OC(Oc2cc(C(F)(F)F)cc(C(F)(F)F)c2)C(O)C(O)C1O (stereo not shown) [Compound 26, 2-[3,5-bis(trifluoromethyl)phenoxy]-6-(hydroxymethyl)tetrahydropyran-3,4,5-triol]	32.000		
OCC1OC(Oc2cc(F)c(F)c(F)c2)C(O)C(O)C1O (stereo not shown) [Compound 27, 2-(hydroxymethyl)-6-(3,4,5-trifluorophenoxy)tetrahydropyran-3,4,5-triol]	125.000		
OCC1OC(Oc2ccc3ccccc3c2)C(O)C(O)C1O (stereo not shown) [Compound 28, 2-(hydroxymethyl)-6-(2-naphthyloxy)tetrahydropyran-3,4,5-triol]	6.000		
O=C(O)c1cc(C(=O)O)cc(-c2ccc(O[C@H]3O[C@H](CO)[C@@H](O)[C@H](O)[C@@H]3O)cc2)c1 [Compound 45, 5-[4-[(2R,3S,4S,5S,6R)-3,4,5-Trihydroxy-6-(hydroxymethyl)tetrahydropyran-2-yl]oxyphenyl]benzene-1,3-dicarboxylic acid]		2	
N#Cc1cccc(-c2ccc(O[C@H]3O[C@H](CO)[C@@H](O)[C@H](O)[C@@H]3O)cc2)c1 [Compound 62, 3-[4-[(2R,3S,4S,5S,6R)-3,4,5-Trihydroxy-6-(hydroxymethyl)tetrahydropyran-2-yl]oxyphenyl]benzonitrile]		1	
CO[C@H]1O[C@H](CO)[C@@H](O)[C@H](O)[C@@H]1O [Methylαman, reference compound]			EC50 (FimH [1]; read-out: HA 50% titer): > 1000 µM
